Values after ≈ are worked out from the molar mass of the structure shown. Like-named read-outs stand apart in the source and are kept apart here.
Legend:
[1] = background; cited from earlier work
[2] = background; natural prostacyclin under neutral or acidic conditions; cited from earlier work
[3] = heart rate, intravenous injection in anesthetized rats; format: in vivo, rat (male wister); conditions: rat, i.v., dosage causing a 10% increase of heart rate
Protocol: (§1) (ii) Measurement of the hypotensive activity
(§2) The actions of the 9(0)-methano-Δ^6(9) -prostaglandin 1, obtained in Example 3 on the blood pressure and heart rate of rats were examined by intravenous injection under anesthesia.
(§3) Male wister rats weighing about 250 g were used. Urethane (500 mg/kg) and α-chloralose (100 mg/kg) were intraperitoneally administered to the rats. The rats were anesthetized and fixed place.
(§4) The test compound was dissolved in a small amount of ethanol and diluted with 0.05M Tris buffer saline (pH 9) to adjust the final ethanol concentration to not more than 5%. The solution was intravenously injected into the rats through a cathether inserted into the femoral vein.
(§5) The blood pressure of the rats was measured by a pressure transducer through a cathether inserted into the carotid artery of the rats. The heart rate was determined from the blood pressure pulse.
(§6) The action of the test compound on the blood pressure was expressed as the dosage (ED20, μg/kg) of the test compound which caused a 20% lowering of the mean blood pressure before administration of the compound. The action of the test compound on the heart rate was expressed as the dosage (ED10, μg/kg) of the test compound which caused a 10% increase of the heart rate from the heart rate before administration of the test compound.

[4] = system: epithelial cells of rabbits; experiment: cell protecting action against cell lethal action at pH 3; format: cell-based, rabbit; conditions: 10^-6 M
[5] = hypotensive activity, intravenous injection in anesthetized rats: blood pressure; format: in vivo, rat (male wister); conditions: rat, i.v., dosage causing a 20% lowering of mean blood pressure
Protocol: as §1, §2, §3, §4, §5, §6

[6] = system: platelet aggregation (rabbit platelet-rich plasma, ADP); experiment: in vitro inhibition of ADP-induced platelet aggregation; format: cell-based, rabbit (Japanese domestic white male); conditions: Oryctolagus cuniculus
Protocol: (i) Measurement of in vitro inhibitory activity of platelet aggregation
The in vitro platelet aggregation inhibiting activities of 9(0)-methano-Δ^6(9) -prostaglandin I, obtained in Example 3 was examined by using rabbits. Blood was withdrawn from the ear vein of Japanese domestic white male rabbits weighing 2.5 to 3.5 kg. A mixture of a 3.8% trisodium citrate solution and the blood in a ratio of 1:9 was centrifuged at a speed of 1000 rpm for 10 minutes. The upper layer was separated as platelet-rich plasma (PRP). The lower layer was further centrifuged at a speed of […] for 10 minutes. The upper layer was separated as platelet-poor plasma (PPP). The number of platelets was adjusted to 6×10^5 /μl to 7×10^5 /μl by diluting the PRP with PPP. 25 microliters of the test compound prepared as shown below was added in an amount of 250 microliters of PRP after the adjustment, and the mixture was pre-incubated at 37° C. for 2 minutes, and then 10 μM (final) of ADP was added. By using an aggregometer, changes in transmission were recorded.
The test compound was dissolved in ethanol to a concentration of 10 mg/ml. When its activity was measured, it was used after being diluted with phosphate buffer (pH 7.4).
The rate of inhibition of platelet aggregation was determined from the following equation. [formula] To : the transmittance of the system containing the phosphate buffer, T: the transmittance of the system to which the test compound was added.
The minimum concentration of the compound which inhibited more than 50% of platelet aggregation was shown as an IC50 value.

[7] = rabbit PRP, 10 μM ADP, minimum concentration which inhibited more than 50% of platelet aggregation, read-out: platelet aggregation inhibiting activity IC50

Row | SMILES | action-selectivity, in words [1] | biological activity relative to natural prostacyclin, in words [1] | chemical stability, in words [2] | increase of heart rate ED10 [3] | cell protecting action [4] | ED20 [5] | IC50 ([6]; Platelet, rabbits, induced by ADP, read-out: inhibition of platelet aggregation IC50) | IC50 [6, 7]
1 | CCCCC[C@H](O)/C=C/[C@@H]1[C@H]2C/C(=C\CCCC(=O)O)C[C@H]2C[C@H]1O [6,9-(0)-methanoprostacyclin] | not enough specific in action-selectivity | inferior to natural prostacyclin in biological activity | able to satisfy the chemical stableness to perfection |  |  |  |  | 
2 | CCCCC[C@H](O)/C=C/[C@@H]1[C@H]2CC(CCCCC(=O)O)=C[C@H]2C[C@H]1O [9(0)-methano-Δ^6(9) -prostaglandin I1] |  |  |  | > 30 µg/kg | has a cell protecting action | 1.7 µg/kg | 5.4 ng/mL (≈ 0.0154 µM) | 5.4 ng/mL (≈ 0.0154 µM)
3 | CCCCC[C@H](O)/C=C/[C@@H]1[C@H]2C/C(=C/CCCC(=O)O)O[C@H]2C[C@H]1O [PGI2] |  |  | apt to be appreciably hydrolyzed | > 10 µg/kg |  | 0.068 µg/kg |  | 1.6 ng/mL (≈ 0.00454 µM)
